This note sets out measurements from PubChem BioAssay (NCI).

Structures are written as SMILES.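 Results reflect a 48-hour exposure of cells in 96-well plates to compound at five concentrations. GI50 is the concentration that inhibits growth by half. Definition used: TGI = concentration required for complete inhibition of growth.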

Holding throughout (assay): DTP human tumour cell line panel, 48 h
Assay [1] concerns HCT-116 colon.
For assay [2], the system named is OVCAR-5 ovarian.
The subject of assay [3] is M14 melanoma.
Assay [4] has as its system MDA-MB-231 breast.
Assay [5] deals with SF-268 CNS.
The subject of assay [6] is HL-60(TB) leukemia.
Assay [7] has as its system NCI-H23 lung.
The test system of assay [8] is SW-620 colon.
Assay [9] has as its system COLO 205 colon.
Assay [10] concerns HCC-2998 colon.

As a reminder, the GI50 is the concentration giving 50% growth inhibition. What is called TGI is the concentration at which net growth stops. The low end stands for more potent growth arrest, the high end for less potent growth arrest. On to `N#Cc1c(Br)n(C2OC(CO)C(O)C2O)c2ncnc(N)c12` (stereo not given), for which the GI50 in assay [1] was 0.685 µM; in assay [2] it was 4.17 µM; in assay [3] it was 2.18 µM; in assay [4], 3.82 µM; in [5], 1.5 µM; in assay [6] it was 0.608 µM. The GI50 in assay [7] was 3.63 µM; in assay [8], 0.74 µM; in assay [9] it was 0.675 µM; in assay [10] it was 2.15 µM. The TGI was more than 77.7 µM in [1]; more than 100 µM in [2]; 17.8 µM in [3]; more than 79.9 µM in assay [4]; 18.9 µM in assay [5]; 2.59 µM in assay [6]. Also, the total growth inhibition concentration (TGI) in assay [7] came to 41.1 µM; in [8], 32.7 µM; in assay [9] it was 3.07 µM; in assay [10], 26.3 µM.

As to `Brc1ccc2[nH]cc(-c3nc(-c4c[nH]c5ncccc45)cs3)c2c1`, the GI50 in [1] is 3.09 µM; in assay [2], 4.49 µM; in assay [3], 2.7 µM; in [4], 1.59 µM; in [5], 5.47 µM; in [6] it was 4.29 µM. Also, the GI50 was 3.55 µM in assay [7], 3.79 µM in [8], 1.13 µM in assay [9] and 3.59 µM in [10]. Besides, the TGI in assay [1] is 12.2 µM; in assay [2], 17.6 µM; in assay [3] it was 8.6 µM; in [4], 5.99 µM; in [5], 19.8 µM; in assay [6], more than 100 µM. Further, the TGI in [7] is 18.7 µM; in [8] it was 14.1 µM; in [9], 5.77 µM; in [10] it was 15.7 µM.

On to `Cc1ccc(/C=C2\CN(C(=O)C(Cl)Cl)C/C(=C\c3ccc(C)cc3)C2=O)cc1`, for which the GI50 in assay [1] is 0.0654 µM; in [2], 0.333 µM; in assay [3], 0.261 µM; in assay [4], 0.337 µM; in [5], 0.331 µM; in assay [6] it was 0.25 µM. Moreover, the GI50 in [7] is 0.221 µM; in assay [8] it was 0.0554 µM; in assay [9], 0.241 µM; in assay [10], 0.176 µM. Also, the TGI in assay [1] is 0.194 µM; in [2], 1.46 µM; in [3], 0.784 µM; in [4], 1.57 µM; in [5], 2.43 µM; in assay [6], 1.33 µM. The TGI amounted to 0.478 µM in assay [7], 0.234 µM in assay [8], 0.695 µM in assay [9] and 0.33 µM in assay [10].

As for `Oc1ccc(-c2nc3ccc4[nH]ncc4c3c3c2CCCC3)c(F)c1`, the GI50 in assay [1] is 0.739 µM; in assay [2], 4.41 µM; in assay [3], 1.07 µM; in assay [4], 2.79 µM; in assay [5], 3.27 µM; in [6], 2.93 µM. Further, the GI50 in assay [7] is 3.15 µM; in assay [8] it was 1.41 µM; in assay [9], 2.25 µM; in [10], 4.25 µM. The TGI in assay [1] stood at 11 µM; in assay [2] it was 17.6 µM; in assay [3] it was 12 µM; in [4], 10.5 µM; in assay [5] it was 14.7 µM; in [6] it was 8.82 µM. Further, the TGI in assay [7] was determined as 14 µM; in assay [8], 8.29 µM; in assay [9], 5.56 µM; in assay [10], 14.5 µM.

As for `COc1cccc(/C=N/NC(=S)NC2CC3CCC2C3)c1O` (stereo not given), the GI50 in assay [1] was 4.01 µM; in assay [2] it was 44.9 µM; in [3] it was 9.92 µM; in assay [4], 4.88 µM; in [5], 5.84 µM; in assay [6], 16.6 µM. Also, the GI50 in assay [7] was 15.1 µM; in assay [8] it was 13.7 µM; in assay [9], 96.7 µM; in assay [10] it was 80.4 µM. The concentration for total growth inhibition (TGI) is 15.8 µM in assay [1]; more than 100 µM in assay [2]; 31.9 µM in [3]; 21.9 µM in assay [4]; 21.5 µM in assay [5]; 60.3 µM in assay [6]. Besides, the TGI was 45.4 µM in [7], more than 100 µM in assay [8], more than 100 µM in [9] and more than 100 µM in assay [10].

As for `FC(F)(F)c1ccc(-c2cnc(-n3cc(COCCN4CCCCC4)nn3)nc2NC2CCCCCC2)cc1`, the GI50 was 3.32 µM in assay [1]; 4.72 µM in [2]; 4.34 µM in assay [3]; 3.47 µM in [4]; 3.98 µM in assay [5]; 3.84 µM in [6]. Besides, the GI50 is 3.8 µM in assay [7], 3.79 µM in assay [8], 3.86 µM in assay [9] and 3.93 µM in [10]. Besides, the concentration for total growth inhibition (TGI) is 7 µM in assay [1]; 8.79 µM in [2]; 9.01 µM in [3]; 6.86 µM in assay [4]; 7.87 µM in assay [5]; 8.26 µM in [6]. In addition, the TGI in assay [7] was determined as 7.81 µM; in [8], 7.95 µM; in assay [9] it was 8.57 µM; in assay [10], 7.44 µM.
